Experiments:
[1] = test system: VIOTR; test: Pre-emergence action at 320 g/ha against VIOTR; format: in vivo, Viola tricolor; settings: dosage 320 g/ha
Description: (§1) b) Seeds of monocotyledonous and dicotyledonous weed plants and crop plants are placed in plastic or organic planting pots and covered with soil. The compounds of the invention, formulated in the form of wettable powders (WP) or as emulsion concentrates (EC), are then applied onto the surface of the covering soil as aqueous suspension or emulsion with addition of 0.5% additive at a water application rate of 600 l/ha (converted). After the treatment, the pots are placed in a greenhouse and kept under good growth conditions for the trial plants. After about 3 weeks, the effect of the preparations is scored visually in comparison with untreated controls as percentages. For example, 100% activity=the plants have died, 0% activity=like control plants. Tables 13 to 26 below show the effects of selected compounds of the general formula (I) on various harmful plants and at an application rate corresponding to 320 g/ha, which were obtained by the experimental procedure mentioned above.

[2] = test system: SETVI; test: Pre-emergence action at 320 g/ha against SETVI; format: in vivo, Setaria viridis; settings: visual scoring after about 3 weeks vs untreated controls
Description: as §1

[3] = test system: MATIN; test: Pre-emergence action at 320 g/ha against MATIN; format: in vivo, Tripleurospermum inodorum (Matricaria inodora); settings: visual scoring after about 3 weeks vs untreated controls
Description: as §1

[4] = test system: AMARE; test: Pre-emergence action at 320 g/ha against AMARE; format: in vivo, Amaranthus retroflexus; settings: visual scoring after about 3 weeks vs untreated controls
Description: as §1

[5] = test system: ALOMY; test: Pre-emergence action at 320 g/ha against ALOMY; format: in vivo, Alopecurus myosuroides; settings: scored visually after about 3 weeks vs untreated controls (100% = plants have died)
Description: as §1

[6] = test system: LOLRI; test: Pre-emergence action at 320 g/ha against LOLRI; format: in vivo, Lolium rigidum; settings: visual scoring after about 3 weeks vs untreated controls
Description: as §1

[7] = test system: DIGSA; test: Pre-emergence action at 320 g/ha against DIGSA; format: in vivo, Digitaria sanguinalis; settings: visual scoring after about 3 weeks vs untreated controls
Description: as §1

[8] = test system: POLCO; test: Pre-emergence action at 320 g/ha against POLCO; format: in vivo, Fallopia convolvulus (Polygonum convolvulus); settings: visual scoring after about 3 weeks vs untreated controls
Description: as §1

[9] = test system: VERPE; test: Pre-emergence action at 320 g/ha against VERPE; format: in vivo, Veronica persica; settings: visual scoring after about 3 weeks vs untreated controls
Description: as §1

[10] = test system: AVEFA; test: Pre-emergence action at 320 g/ha against AVEFA; format: in vivo; settings: visual scoring after about 3 weeks vs untreated controls
Description: as §1

| SMILES | Pre-emergence action against VIOTR in % [1] [%] | Pre-emergence action against SETVI in % [2] [%] | Pre-emergence action against MATIN in % [3] [%] | Pre-emergence action against AMARE in % [4] [%] | Pre-emergence action at 320 g/ha against ALOMY in % [5] [%] | Pre-emergence action against LOLRI in % [6] [%] | Pre-emergence action against DIGSA in % [7] [%] | Pre-emergence action against POLCO in % [8] [%] | Pre-emergence action against VERPE in % [9] [%] | Pre-emergence action against AVEFA in % [10] [%] |
| --- | --- | --- | --- | --- | --- | --- | --- | --- | --- | --- |
| COC(=O)CNC(=O)C(F)Oc1nn(-c2ccccc2F)c(-c2ccc(F)nc2)c1Br (stereo not drawn) [Example X-014] | 100 | 90 | 90 | 100 | 90 | 90 | – | – | – | – |
| COC(=O)CN(C)C(=O)COc1nn(-c2ccccc2F)c(-c2ccc(F)nc2)c1Br [Example X-030] | 90 | 80 | – | 90 | 90 | – | 100 | – | – | – |
| C[C@@H](Oc1nn(-c2ccccc2)c(-c2cccnc2)c1Cl)C(=O)O [VII-042] | 100 | – | 90 | 100 | 90 | 100 | – | 100 | 90 | – |
| CCOC(=O)C(F)Oc1nn(-c2ccccc2F)c(-c2ccc(F)nc2)c1Br (stereo not drawn) [VII-071-a] | 100 | – | 90 | 100 | 80 | 100 | 90 | 90 | 80 | – |
| CCOC(=O)COc1nn(-c2ccccc2)c(-c2ccc(F)nc2)c1Br [VII-116] | 90 | 100 | 90 | 100 | 100 | 100 | 100 | 90 | 100 | 90 |
